{"source": "patent US20260224596A1", "about": "“Phosphate Prodrugs of Cannabinoids” (Emory University, priority 2023, published 2026)", "key": {"[1]": {"assay": "Nephelometry solubility in 1% DMSO", "type": "physicochemical", "conditions": "PBS pH 7.0-7.3 with 1% DMSO, 25° C.; for solubility at 90 min: Dulbecco's phosphate-buffered saline with 1% DMSO, aqueous buffer, kinetic from dmso stock", "procedure": "Nephelometry experiments were performed using untreated CORNING® COSTAR® 96-well black polystyrene plates with clear flat bottoms. Sample stock solutions and serial dilutions were prepared with DRISOLV® DMSO purchased from MilliporeSigma. […] Nephelometry data was obtained using a NEPHELOSTAR® microplate reader and processed with MARS data analysis software from BMG LabTech.\nTested compounds were dissolved in 100% DMSO to make stock solutions of specified concentrations, ranging from 10 mM minimum up to 50 mM maximum. The sample then underwent serial dilution in a 96-well plate (CORNING® COSTAR®). Well A1 of the plate contained 100% DMSO. […] Using a 12-channel multichannel pipette, 2.5 μL of sample from row A was transferred to each well in row B through row H of the plate. Next, 30 μL of PBS (pH=7.0-7.3) was added to row B through row H, providing each well with 32.5 μL. The plate was then incubated for 30 sec with shaking. Finally. 217.5 μL of PBS buffer was added to row B through row H, and the entire plate was incubated with shaking at 25° C. for 90 min. The final volume of DMSO in actual experiments with PBS buffer was 1% throughout the plate. After 90 min. the 96-well plate was analyzed with a NEPHELOSTAR® instrument and the data was processed with MARS data analysis software."}, "[2]": {"assay": "Liver microsome stability assay (HLM)", "type": "in vitro ADME", "conditions": "human liver microsomes, 3 μM test compound, NADPH, 0-30 min, LC-MS/MS; for half-life at 3 μM: pH 7.4, read-out: T½ in HLM", "procedure": "As used herein, the “human liver microsomes stability, T1/2” is determined according to the procedure described in Example 9.\nHuman and mouse liver microsomes were purchased from Xenotech at 20 mg/mL. NADPH (Sigma-Aldrich) 10 mM stocks were prepared in deionized water.\nTest compounds and positive controls were dissolved in 100% DMSO to make 10 mM stock solutions. Verapamil (Sigma-Aldrich) and diphenhydramine (Sigma-Aldrich) were used as positive controls for both human liver microsomes (HLM) and mouse liver microsomes (MLM). The 10 mM stock solutions of test and control compounds were further diluted in potassium phosphate buffer (100 mM, pH 7.4) to 500 μM to ensure that the organic solvent content was <0.2%. The liver microsome (HLM or MLM) assay was prepared in a 1.5 mL Eppendorf tube with a final volume of 1100 μL for duplicate runs. Each reaction contained phosphate buffer (928.4 μL), liver microsomes (55 μL), and test compound (6.6 μL of 500 μM), resulting in a final concentration of 3 μM for the test compound. The reaction was initiated with 110 μL of 10 mM NADPH. Aliquots (100 μL) were removed in duplicate at 0, 5, 10, 15, and 30 min and quenched in […] of 100% cold methanol which contained internal standard (ISTD: d5-7-ethoxy coumarin 2 μM). The aliquots were centrifuged at 12,000g for 5 min, and the supernatant was transferred and placed in an LC-MS vial. Each time point was assessed by LC-MS/MS, and the area under the m/z curve (AUC), based on the MRM transition, was integrated w.r.t the ISTD. Positive controls were conducted at a final volume of 550 μL to enable a single run for each time point. Negative controls in the absence of NADPH were performed with the test and control compounds, respectively, at a final volume of 150 μL and measured at the most prolonged time point. Control compounds were processed and analyzed like test compounds. Each time point was run in triplicates on LC-MS/MS followed by in-between blank washes to avoid the carryover and to equilibrate the column. Half-life (T1/2) was calculated using the data obtained from LC-MS/MS and by plotting ln (% remaining of the parent prodrug) versus time and performing linear regression to determine slope. Slope=−k and T1/2=0.693/k for first-order kinetics."}, "[3]": {"assay": "Plasma stability assay", "type": "in vitro ADME, human", "conditions": "for half-life at 3 μM: read-out: T½ in human plasma; for Δ^8-THC detected in plasma: release of parent Δ^8-THC in human plasma incubation", "procedure": "As used herein, the “human plasma stability, T1/2” is determined according to the procedure described in Example 10.\nProcaine and Procainamide were purchased from Sigma-Aldrich. Human plasma was obtained from BioIVT (Cat. No. […]2N) and 1× Dulbecco's PBS (pH 7.4, Gibco) was obtained from Thermos Fischer. Stock solutions were prepared in 100% DMSO, and suitable dilutions of target analytes were prepared in methanol for method development.\nTest compounds were dissolved in DMSO to make a stock solution of 10 mM and then diluted to 500 μM in buffer (or 70% MeOH). Human plasma was thawed at ambient temperature and is aliquoted (994.0 μL) to a 1.5 mL Eppendorf tube in duplicates (A and B) for each compound. Plasma was incubated at 37° C. for 10 minutes in an incubator shaker at 150 rpm; the reaction was initiated by the addition of the test compound (6.0 μL) and vortex mixing. The total reaction volume was 1000 μL where the final organic solvent concentrations were 0.6% MeOH and 0.03% DMSO. The spiked plasma samples were incubated at 37° C. for […]. The reactions were terminated at time points 0, 15, 30, 60, and 120 min by taking a 100 μL aliquot from the test incubation mixture and immediately quenching it in ice-cold mathanol containing internal standard (150 μL with 2 μM ISTD), followed by a quick vortex mixing. In addition, matrix blank was prepared by adding methanol solutions containing ISTD to plasma samples without any of the analytes or control compounds. Also, an additional tube was made to measure compound degradation in PBS buffer. The samples were centrifuged at 15,000 rpm for 25 min at 4° C. The supernatant was transferred to an LC-MS vial for analysis by LC/MS-MS. Each time point was run in duplicates followed by in-between blank washes to avoid the carryover and to equilibrate the column. Half-life (T1/2) was calculated using the data obtained from LC-MS/MS and by plotting ln (% remaining of the parent prodrug) versus time and performing linear regression to determine slope. Slope=−k and T1/2=0.693/k for first-order kinetics. Procaine (poor plasma stability) was used as a positive control at a final concentration of 3 μM. The positive control was run in parallel to test the systems for competency.\nAn exemplary experimental setup is described below. Conical polypropylene microcentrifuge tubes (1.5 mL) were labelled in duplicate for 0, 15, 30, 60, and 120 min for each compound being tested. • Example: No. of tubes prepared per Test Compound (TC): • Test compound: 994 μL human plasma+6.0 μL TC (Vial A) • 994 μL human plasma+6.0 μL TC (Vial B) • Positive control: 596 μL human plasma+3.6 μL (procaine) • Matrix blank: 500 μL PBS buffer+100 μL human plasma • Negative control: 142 μL PBS buffer+0.9 μL TC1 • Quenching mixture: 150 μL methanol with ISID (2 μM) • Final volume after quenching: 250 μL (100 μL from the incubation mixture and 150 μL from the quenching mixture; ISTD conc. 1.2 μM)"}, "[4]": {"conditions": "human plasma, 37° C., time points 0-120 min, LC-MS/MS"}}, "note": "Counter-ions that a name gives are not always drawn."}
{"smiles": "CCCCCc1cc(O)c2c(c1)OC(C)(C)[C@@H]1CC=C(C)C[C@@H]21", "note": "(relative stereo) [Δ^8-THC, (−)trans-Δ^8-THC, reference compound]", "values": [{"measurement": "Solubility in 1% DMSO", "setting": "[1]; 90 min", "result": "15.93 ± 0.8", "unit": "µM"}, {"measurement": "T½ in HLM", "setting": "[2]", "result": 5.51, "unit": "min"}, {"measurement": "T½ in human plasma", "setting": "[3]; [4]", "result": "1440 ± 360", "unit": "min"}]}
{"smiles": "CCCCCc1cc(OC(=O)OCCCOP(=O)(O)O)c2c(c1)OC(C)(C)[C@@H]1CC=C(C)C[C@@H]21", "note": "[Compound 11a, 3-(phosphonooxy)propyl ((6aR,10aR)-6,6,9-trimethyl-3-pentyl-6a,7,10,10a-tetrahydro-6H-benzo[c]chromen-1-yl) carbonate di-ammonium salt]", "values": [{"measurement": "half-life at 3 μM", "setting": "[2]", "result": 18.8, "unit": "min"}]}
{"smiles": "CCCCCc1cc(OC(=O)OCCCCOP(=O)(O)O)c2c(c1)OC(C)(C)[C@@H]1CC=C(C)C[C@@H]21.N.N", "note": "[Compound 11b, 4-(phosphonooxy)butyl ((6aR,10aR)-6,6,9-trimethyl-3-pentyl-6a,7,10,10a-tetrahydro-6H-benzo[c]chromen-1-yl) carbonate di-ammonium salt]", "values": [{"measurement": "solubility at 90 min", "setting": "[1]", "result": "> 500", "unit": "µM"}, {"measurement": "half-life at 3 μM", "setting": "[2]", "result": 17.2, "unit": "min"}, {"measurement": "half-life at 3 μM", "setting": "[3]; [4]", "result": "> 120", "unit": "min"}, {"measurement": "Δ^8-THC detected in plasma", "setting": "[3]", "result": "Yes"}]}
{"smiles": "CCCCCc1cc(OC(=O)CCCOP(=O)(O)O)c2c(c1)OC(C)(C)[C@@H]1CC=C(C)C[C@@H]21.N.N", "note": "[Compound 16a, (6aR,10aR)-6,6,9-trimethyl-3-pentyl-6a,7,10,10a-tetrahydro-6H-benzo[c]chromen-1-yl 4-(phosphonooxy)butanoate di-ammonium salt]", "values": [{"measurement": "solubility at 90 min", "setting": "[1]", "result": "> 500", "unit": "µM"}, {"measurement": "half-life at 3 μM", "setting": "[2]", "result": 51.3, "unit": "min"}, {"measurement": "half-life at 3 μM", "setting": "[3]; [4]", "result": "> 120", "unit": "min"}, {"measurement": "Δ^8-THC detected in plasma", "setting": "[3]", "result": "Yes"}]}
{"smiles": "CCCCCc1cc(OC(=O)CCCCOP(=O)(O)O)c2c(c1)OC(C)(C)[C@@H]1CC=C(C)C[C@@H]21.N.N", "note": "[Compound 16b, (6aR,10aR)-6,6,9-trimethyl-3-pentyl-6a,7,10,10a-tetrahydro-6H-benzo[c]chromen-1-yl 5-(phosphonooxy)pentanoate di-ammonium salt]", "values": [{"measurement": "solubility at 90 min", "setting": "[1]", "result": "> 500", "unit": "µM"}, {"measurement": "half-life at 3 μM", "setting": "[2]", "result": 40.1, "unit": "min"}]}
{"smiles": "CCCCCc1cc(OC(=O)NCCOP(=O)(O)O)c2c(c1)OC(C)(C)[C@@H]1CC=C(C)C[C@@H]21.N.N", "note": "[Compound 21a, (6aR,10aR)-6,6,9-trimethyl-3-pentyl-6a,7,10,10a-tetrahydro-6H-benzo[c]chromen-1-yl (2-(phosphonooxy)ethyl)carbamate di-ammonium salt]", "values": [{"measurement": "solubility at 90 min", "setting": "[1]", "result": "> 500", "unit": "µM"}, {"measurement": "half-life at 3 μM", "setting": "[2]", "result": 5.6, "unit": "min"}]}
{"smiles": "CCCCCc1cc(OC(=O)NCCCOP(=O)(O)O)c2c(c1)OC(C)(C)[C@@H]1CC=C(C)C[C@@H]21.N.N", "note": "[Compound 21b, (6aR,10aR)-6,6,9-trimethyl-3-pentyl-6a,7,10,10a-tetrahydro-6H-benzo[c]chromen-1-yl (3-(phosphonooxy)propyl)carbamate di-ammonium salt]", "values": [{"measurement": "solubility at 90 min", "setting": "[1]", "result": "> 500", "unit": "µM"}, {"measurement": "half-life at 3 μM", "setting": "[2]", "result": 12.5, "unit": "min"}, {"measurement": "half-life at 3 μM", "setting": "[3]; [4]", "result": "> 120", "unit": "min"}, {"measurement": "Δ^8-THC detected in plasma", "setting": "[3]", "result": "Yes"}]}
